Laboratory results from ChEMBL document CHEMBL1201862, “PubChem BioAssay data set” (2004).
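Grown in 96-well plates, cells were treated for 48 hours with each compound at five concentrations. Insufficient inhibition: endpoint recorded as highest concentration tested. GI50 marks 50% less growth.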 The source made the active and inactive calls. Cut-off read from the data, not from the text of the source: active = GI50 up to about 1.1 µM and inactive = higher.

What was measured:
Assay in all cases: NCI-60 cell line screen, 48 h
T47D = system: T47D
SK-MEL-5 = system: SK-MEL-5
UO-31 = system: UO-31
NCI/ADR-RES = system: NCI/ADR-RES
COLO 205 = system: COLO 205
ACHN = system: ACHN
SN12C = system: SN12C
A549 = system: A549
BT-549 = system: BT-549
SR = system: SR
NCI-H460 = system: NCI-H460
NCI-H23 = system: NCI-H23
M14 = system: M14
SK-MEL-2 = system: SK-MEL-2
OVCAR-3 = system: OVCAR-3
NCI-H522 = system: NCI-H522
SK-OV-3 = system: SK-OV-3
TK-10 = system: TK-10
OVCAR-5 = system: OVCAR-5
RPMI-8226 = system: RPMI-8226
MDA-MB-435 = system: MDA-MB-435
NCI-H226 = system: NCI-H226
Hs-578T = system: Hs-578T
PC-3 = system: PC-3
SK-MEL-28 = system: SK-MEL-28
786-0 = system: 786-0
SF-268 = system: SF-268
OVCAR-4 = system: OVCAR-4
SF-295 = system: SF-295
IGROV-1 = system: IGROV-1
HL-60 = system: HL-60
HT-29 = system: HT-29
MOLT-4 = system: MOLT-4
SNB-75 = system: SNB-75
LOX IMVI = system: LOX IMVI
Malme-3M = system: Malme-3M
HOP-92 = system: HOP-92
CCRF-CEM = system: CCRF-CEM
CAKI-1 = system: CAKI-1
SW-620 = system: SW-620
MCF7 = system: MCF7
SNB-19 = system: SNB-19
K562 = system: K562
OVCAR-8 = system: OVCAR-8
UACC-62 = system: UACC-62
HCT-15 = system: HCT-15
KM12 = system: KM12
HOP-62 = system: HOP-62
UACC-257 = system: UACC-257
EKVX = system: EKVX
U-251 = system: U-251
DU-145 = system: DU-145
HCC 2998 = system: HCC 2998
RXF 393 = system: RXF 393
HCT-116 = system: HCT-116
SF-539 = system: SF-539
MDA-N = system: MDA-N
MDA-MB-231 = system: MDA-MB-231
A498 = system: A498

Measured: GI50

CC1(C)C[C@@H]2C1CCC1(C)CC2(O)CC[C@H]1O (some centres undefined)
inactive: T47D > 100 µM | SK-MEL-5 > 100 µM | UO-31 > 100 µM | NCI/ADR-RES > 100 µM | COLO 205 > 100 µM | ACHN > 100 µM | SN12C > 100 µM | A549 > 100 µM | BT-549 > 100 µM | SR > 100 µM | NCI-H460 > 100 µM | NCI-H23 > 100 µM | M14 > 100 µM | SK-MEL-2 > 100 µM | OVCAR-3 > 100 µM | NCI-H522 > 100 µM | SK-OV-3 > 100 µM | TK-10 > 100 µM | OVCAR-5 > 100 µM | RPMI-8226 > 100 µM | MDA-MB-435 > 100 µM | NCI-H226 > 100 µM | Hs-578T > 100 µM | PC-3 > 100 µM | SK-MEL-28 > 100 µM | 786-0 > 100 µM | SF-268 > 100 µM | OVCAR-4 > 100 µM | SF-295 > 100 µM | IGROV-1 > 100 µM | HL-60 > 100 µM | HT-29 > 100 µM | MOLT-4 > 100 µM | SNB-75 > 100 µM | LOX IMVI > 100 µM | Malme-3M > 100 µM | HOP-92 > 100 µM | CCRF-CEM > 100 µM | CAKI-1 > 100 µM | SW-620 > 100 µM | MCF7 > 100 µM | SNB-19 > 100 µM | K562 > 100 µM | OVCAR-8 > 100 µM | UACC-62 > 100 µM | KM12 > 100 µM | HOP-62 > 100 µM | UACC-257 > 100 µM | EKVX > 100 µM | U-251 > 100 µM
> 100 µM: HCT-15

COC1OC(COC(=O)c2cc(O)c(O)c(O)c2)C(OC(=O)c2cc(O)c(O)c(O)c2)C(OC(=O)c2cc(O)c(O)c(O)c2)C1OC(=O)c1cc(O)c(O)c(O)c1 (centres undefined)
inactive: T47D 52.4 µM | SK-MEL-5 13.3 µM | UO-31 17.1 µM | NCI/ADR-RES 29.2 µM | COLO 205 39.4 µM | ACHN 19 µM | DU-145 69.5 µM | SN12C 27.2 µM | A549 33 µM | SR 11.1 µM | NCI-H460 9.2 µM | NCI-H23 78.5 µM | M14 13.1 µM | SK-MEL-2 > 100 µM | OVCAR-3 29.9 µM | NCI-H522 15 µM | SK-OV-3 4.78 µM | TK-10 > 100 µM | OVCAR-5 57.5 µM | RPMI-8226 28.3 µM | MDA-MB-435 12.9 µM | NCI-H226 4.48 µM | Hs-578T > 100 µM | PC-3 50.7 µM | HCC 2998 58.2 µM | SK-MEL-28 > 100 µM | 786-0 13.3 µM | SF-268 27 µM | OVCAR-4 41.3 µM | RXF 393 64.1 µM | SF-295 34.9 µM | HCT-116 33 µM | IGROV-1 27.4 µM | HL-60 18.4 µM | HT-29 33.5 µM | MOLT-4 11.8 µM | SNB-75 26.3 µM | SF-539 12.4 µM | LOX IMVI 13.5 µM | Malme-3M 27.9 µM | HOP-92 74 µM | MDA-N 27.8 µM | CCRF-CEM 12.8 µM | CAKI-1 41.4 µM | SW-620 31.6 µM | MCF7 > 100 µM | SNB-19 43.4 µM | K562 21.5 µM | MDA-MB-231 26.2 µM | A498 1.77 µM | OVCAR-8 27.2 µM | UACC-62 14.4 µM | KM12 22.4 µM | HOP-62 7.33 µM | UACC-257 > 100 µM | EKVX 25.9 µM | U-251 10.6 µM
47.2 µM: HCT-15
